Results as given in PubChem BioAssay (NCI).
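48-hour exposure; five concentrations; linearly interpolated endpoints. Abbreviation: GI50, concentration required for 50% inhibition of growth. Definition used: TGI = concentration required for complete inhibition of growth.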

Assays:
Assay in all cases: inhibition of tumour cell growth, NCI panel, 48 h
SNB-75 CNS = test system: SNB-75 CNS
HT29 colon = test system: HT29 colon
HCT-116 colon = test system: HCT-116 colon
RXF 393 renal = test system: RXF 393 renal
OVCAR-3 ovarian = test system: OVCAR-3 ovarian
HOP-92 NSCLC = test system: HOP-92 NSCLC
K-562 leukemia = test system: K-562 leukemia
NCI-H522 lung = test system: NCI-H522 lung
SK-OV-3 ovarian = test system: SK-OV-3 ovarian

SMILES | TGI (SNB-75 CNS) [µM] | TGI (HT29 colon) [µM] | TGI (HCT-116 colon) [µM] | TGI (RXF 393 renal) [µM] | TGI (OVCAR-3 ovarian) [µM] | TGI (HOP-92 NSCLC) [µM] | TGI (K-562 leukemia) [µM] | TGI (NCI-H522 lung) [µM] | TGI (SK-OV-3 ovarian) [µM] | GI50 (NCI-H522 lung) [µM] | GI50 (SK-OV-3 ovarian) [µM] | GI50 (HT29 colon) [µM] | GI50 (HCT-116 colon) [µM] | GI50 (RXF 393 renal) [µM] | GI50 (K-562 leukemia) [µM] | GI50 (SNB-75 CNS) [µM] | GI50 (OVCAR-3 ovarian) [µM]
O=C(c1ccco1)c1ccccc1C(=O)c1ccco1 | > 100 | > 100 | > 100 | > 100 | > 100 | > 100 | > 100 | – | – | – | – | – | – | – | – | – | –
CSc1c(S(C)=O)[nH]c2cc(Br)cc(Br)c12 (configuration not stated) | 50.9 | 72.1 | 32.7 | 33.6 | 45 | 32.1 | 72.3 | 55.5 | 61.9 | – | – | – | – | – | – | – | –
CN(C)CCNC(=O)c1cccc2ccc(-c3cccnc3)nc12 | 23.7 | 31.9 | 13.1 | 19.5 | 36.9 | 14.4 | > 100 | – | 36.9 | – | – | – | – | – | – | – | –
Cc1cc2c(=O)cc(-c3ccc(C(F)(F)F)cc3)oc2c(C(=O)O)c1C | > 100 | > 100 | > 100 | > 100 | > 100 | – | > 100 | > 100 | > 100 | – | – | – | – | – | – | – | –
COc1cc[c]([Sb]([Br])([CH]=C(C)C)([CH]=C(C)C)[CH]=C(C)C)cc1 | – | > 100 | 73.7 | 59.1 | – | – | > 100 | 9.23 | 48.3 | 2.48 | 8.94 | 4.89 | 4.78 | 8.8 | 4.54 | – | –
CCOC(=O)C1(Br)C(c2ccccc2)NC(=O)N(C2OC(COC(=O)c3ccccc3)C(OC(=O)c3ccccc3)C2OC(=O)c2ccccc2)C1(C)Br (configuration not stated) | > 90.7 | > 100 | 52.2 | 31 | > 89.6 | 69.9 | 19.3 | 20.3 | > 100 | – | – | – | – | – | – | – | –
CCOC(=O)C12CCSC1C1(C#N)C(C#N)=CC2(N=P(c2ccccc2)(c2ccccc2)c2ccccc2)n2c(=O)n(-c3ccccc3)c(=O)n21 (configuration not stated) | > 100 | > 100 | > 100 | > 100 | 89.8 | 60.9 | > 100 | 87.2 | – | – | – | – | – | – | – | – | –
COc1ccc(C(=O)Nc2ccc(S(=O)(=O)NCC(=O)O)cc2)cc1 | > 100 | > 100 | – | > 100 | > 100 | > 100 | > 100 | > 100 | > 100 | – | – | – | – | – | – | – | –
Cc1ccc(/C=N/NS(=O)(=O)c2ccccc2)cc1 | > 100 | > 100 | > 100 | > 100 | > 100 | > 100 | > 100 | – | > 100 | – | – | – | – | – | – | – | –
C/C(=C1/N=C(c2ccccc2)OC1=O)c1ccc(C)cc1 | – | > 100 | > 100 | > 100 | > 100 | > 100 | > 100 | > 100 | > 100 | – | – | – | – | – | – | – | –
N.N.N.N.N.N#N.[Cl-].[Os+7] | > 100 | – | > 100 | > 100 | > 100 | – | – | > 100 | – | > 100 | – | – | > 100 | > 100 | – | > 100 | > 100
NCCn1ccc(NC(c2ccccc2)(c2ccccc2)c2ccccc2)nc1=O | 33.9 | 31.1 | 35.5 | 21.3 | 52.6 | 27.4 | 44.9 | 32.8 | – | – | – | – | – | – | – | – | –
O=C(c1ccccn1)c1nc(-c2ccc(Cl)c(Cl)c2)nc2ccc(Cl)cc12 | 35 | > 100 | 33.4 | 46.8 | > 100 | – | > 100 | – | > 100 | – | – | – | – | – | – | – | –
CC1(C(=O)NCCN(CCNC(=O)C2(C)CC3(C)CC(C)(C2)C(=O)NC3=O)CCNC(=O)C2(C)CC3(C)CC(C)(C2)C(=O)NC3=O)CC2(C)CC(C)(C1)C(=O)NC2=O (configuration not stated) | > 100 | > 100 | > 100 | > 100 | > 100 | – | > 100 | – | > 100 | – | – | – | – | – | – | – | –
O=C(N[C@@H]1C=CCC[C@@H]1c1ccccc1)OCc1ccccc1 | 60.6 | 53.1 | 34.6 | 35.9 | 31.2 | 32.1 | > 100 | 30.9 | > 100 | – | – | – | – | – | – | – | –
Cc1cccc(Cl)c1NC(N)=S | > 100 | > 100 | 35.9 | – | 78.6 | > 100 | > 100 | – | > 100 | – | – | – | – | – | – | – | –
O=c1c2cc(Br)ccc2nc(-c2ccccc2)n1NCC1(O)OCC(O)C(O)C1O (configuration not stated) | > 100 | > 100 | > 100 | > 100 | > 100 | – | > 100 | > 100 | > 100 | – | – | – | – | – | – | – | –
O=C(O)c1c([N+](=O)[O-])cc(C(F)(F)F)cc1[N+](=O)[O-] | – | > 100 | > 100 | > 100 | > 100 | > 100 | > 100 | > 100 | – | – | – | – | – | – | – | – | –
COc1ccc2nc3ccccc3c(NCCCCCN(CCCl)CCCl)c2c1 | 0.911 | 2.84 | – | – | 0.963 | 0.719 | 0.502 | 0.017 | – | – | – | – | – | – | – | – | –
Clc1ccccc1C1N2CCCCC2[C@@H]2c3[nH]c4ccccc4c3CCN12 (some centres not stated) | 66.7 | 31.8 | 32.6 | 40.2 | 32.6 | > 100 | 44.2 | – | 55 | – | – | – | – | – | – | – | –
